{"source": "patent EP3977982A1", "about": "(Acerus Biopharma Inc., priority 2011, dated 2012)", "key": {"[1]": {"settings": "formulated in ethanol/propylene glycol/water; cited from earlier work"}, "[2]": {"settings": "nasal, dissolved in polyethylene glycol (200 mg/ml); cited from earlier work"}, "[3]": {"settings": "cited from earlier work"}, "[4]": {"settings": "nasal, cited from earlier work"}, "[5]": {"assay": "pKa assessment of testosterone", "settings": "inferred from molecular structure, no protonatable groups"}, "[6]": {"assay": "Solubility of testosterone in water, solvents, oils and vehicles"}, "[7]": {"molecular_target": "T1, sex hormone binding globulin (SHBG) (Homo sapiens, UniProt P04278)", "T1 sequence (P04278 30-402)": "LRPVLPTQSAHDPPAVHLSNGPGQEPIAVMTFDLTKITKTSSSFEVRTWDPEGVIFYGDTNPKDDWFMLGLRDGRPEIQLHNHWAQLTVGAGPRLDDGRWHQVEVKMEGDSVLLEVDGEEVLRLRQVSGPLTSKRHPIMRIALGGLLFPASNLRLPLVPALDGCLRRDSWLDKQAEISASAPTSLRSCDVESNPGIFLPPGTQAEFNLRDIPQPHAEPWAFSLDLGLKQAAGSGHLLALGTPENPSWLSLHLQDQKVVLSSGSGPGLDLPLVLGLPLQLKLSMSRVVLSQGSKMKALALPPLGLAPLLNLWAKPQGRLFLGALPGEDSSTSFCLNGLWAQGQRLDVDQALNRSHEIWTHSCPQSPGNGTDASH", "settings": "cited from earlier work"}, "[8]": {"settings": "drug substance; cited from earlier work"}}, "note": "Where two headings read alike, the source gives them in different places.", "data": [{"smiles": "CC(=O)[C@H]1CC[C@H]2[C@@H]3CCC4=CC(=O)CC[C@]4(C)[C@H]3CC[C@]12C", "note": "[progesterone]", "values": [{"measurement": "Tmax", "setting": "[1]", "value": 5.5, "unit": "min"}, {"measurement": "Tmax", "setting": "[2]", "value": 30, "unit": "min"}, {"measurement": "duration of serum level", "setting": "[2]", "value": "at least 8 hours"}, {"measurement": "serum level decrease", "setting": "[3]; nasal powder mixtures progesterone/cyclodextrin", "value": "≤ 20", "unit": "min"}, {"measurement": "Tmax", "setting": "[3]; nasal powder mixtures, co-ground and co-lyophilized progesterone/cyclodextrin", "value": "2 to 5", "unit": "min"}]}, {"smiles": "CN(C)CC(=O)O[C@H]1CC[C@H]2[C@@H]3CCC4=CC(=O)CC[C@]4(C)[C@H]3CC[C@]12C", "note": "[testosterone 17β-N,N-dimethylglycinate]", "values": [{"measurement": "time to peak plasma concentrations", "setting": "[4]; 25 mg dose", "value": "≤ 12", "unit": "min"}, {"measurement": "time to peak plasma concentrations", "setting": "[4]; 50 mg dose", "value": "≤ 20", "unit": "min"}, {"measurement": "elimination half-lives", "setting": "[4]", "value": "about 55 min"}]}, {"smiles": "C[C@]12CC[C@H]3[C@@H](CCC4=CC(=O)CC[C@@]43C)[C@@H]1CC[C@@H]2O", "note": "[testosterone, Testosterone]", "values": [{"measurement": "pKa", "setting": "[5]", "value": "no pKa value in the range 1-14"}, {"measurement": "testosterone levels in the gel", "setting": "[6]; DMI used in conjunction with the other excipients", "value": "≥ 8.0", "unit": "%"}, {"measurement": "testosterone dissolved by solvent alone", "setting": "[6]; Diethyleneglycol ethyl ether alone", "value": "more than 10%"}, {"measurement": "testosterone dissolved by solvent", "setting": "[6]; Dimethyl isosorbide (DMI)", "value": "more than 12%"}, {"measurement": "solubility", "setting": "[6]; acetone and isopropanol", "value": "soluble"}, {"measurement": "amount an aqueous solution can contain", "setting": "[6]; aqueous solution", "value": 0.002, "unit": "mg per 100 µL"}, {"measurement": "solubility of testosterone in oils", "setting": "[6]; castor oil", "value": "up to 4%"}, {"measurement": "amount a castor oil solution can contain", "setting": "[6]; castor oil solution", "value": "up to 4.5 mg per 100 µL"}, {"measurement": "solubility of testosterone in oils", "setting": "[6]; corn oil", "value": 0.5, "unit": "%"}, {"measurement": "solubility of testosterone in oils", "setting": "[6]; cottonseed oil", "value": 0.7, "unit": "%"}, {"measurement": "solubility of testosterone in oils", "setting": "[6]; isopropylmyristate", "value": 0.8, "unit": "%"}, {"measurement": "solubility", "setting": "[6]; methanol and ethanol", "value": "freely soluble"}, {"measurement": "solubility", "setting": "[6]; n-heptane", "value": "insoluble"}, {"measurement": "Testosterone solubility in the oil based gel", "setting": "[6]; oil based TBS-1A gel (so in the source)", "value": "about 4.5%"}, {"measurement": "solubility of testosterone in oils", "setting": "[6]; peanut oil", "value": 0.5, "unit": "%"}, {"measurement": "solubility of testosterone in oils", "setting": "[6]; soybean oil", "value": 0.6, "unit": "%"}, {"measurement": "testosterone remaining unbound (free)", "setting": "[7]; in men", "value": "about 2%"}, {"measurement": "testosterone remaining unbound (free)", "setting": "[7]; in women", "value": "up to 3%"}, {"measurement": "retest period", "setting": "[8]", "value": 5, "unit": "years"}]}]}
